Assay results as given in PubChem BioAssay AID248 (DTP/NCI, 2004).
“And” between values parts separate entries of the source, which are not always exact repeats. Equal values may be shown once. Toxic doses and inconclusive results are not listed. No stated cut-off is given here; in the data, active means T/C of 150% or more; inactive means T/C below 125%.

System: L1210 leukemia ip in BDF1 mice, survival T/C
Experiment: NCI In Vivo Anticancer Drug Screen. Data for tumor model L1210 Leukemia (intraperitoneal) in B6D2F1 (BDF1) mice
Details: endpoint: mean survival time, higher = longer survival
Outline: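 Antitumor effect is assessed in tumor-bearing animals. Survival in the compound arm is compared with a vehicle-dosed control arm and expressed as their quotient.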

[1] = dose: 100.0 mg/kg/injection, schedule: Q01DX001 (ip), vehicle: saline
[2] = dose: 200.0 mg/kg/injection, schedule: Q01DX001 (ip), vehicle: saline
[3] = dose: 100.0 mg/kg/injection, schedule: Q04DX003 (ip), vehicle: saline with Tween-80
[4] = dose: 200.0 mg/kg/injection, schedule: Q04DX003 (ip), vehicle: saline with Tween-80
[5] = dose: 400.0 mg/kg/injection, schedule: Q04DX003 (ip), vehicle: saline with Tween-80
[6] = dose: 100.0 mg/kg/injection, schedule: Q04DX002 (ip), vehicle: Klucel (hydroxypropylcellulose) (HPC)
[7] = dose: 200.0 mg/kg/injection, schedule: Q04DX002 (ip), vehicle: Klucel (hydroxypropylcellulose) (HPC)
[8] = dose: 400.0 mg/kg/injection, schedule: Q04DX002 (ip), vehicle: Klucel (hydroxypropylcellulose) (HPC)
[9] = dose: 100.0 mg/kg/injection, schedule: Q01DX009 (ip), vehicle: saline with Tween-80
[10] = dose: 200.0 mg/kg/injection, schedule: Q01DX009 (ip), vehicle: saline with Tween-80
[11] = dose: 400.0 mg/kg/injection, schedule: Q01DX009 (ip), vehicle: saline with Tween-80
[12] = dose: 100.0 mg/kg/injection, schedule: Q01DX001 (ip), vehicle: carboxymethylcellulose (CMC)
[13] = dose: 200.0 mg/kg/injection, schedule: Q01DX001 (ip), vehicle: carboxymethylcellulose (CMC)
[14] = dose: 400.0 mg/kg/injection, schedule: Q01DX001 (ip), vehicle: carboxymethylcellulose (CMC)
[15] = dose: 50.0 mg/kg/injection, schedule: Q01DX001 (ip), vehicle: saline
[16] = dose: 400.0 mg/kg/injection, schedule: Q01DX001 (ip), vehicle: saline
[17] = dose: 100.0 mg/kg/injection, schedule: Q04DX003 (ip), vehicle: saline
[18] = dose: 200.0 mg/kg/injection, schedule: Q04DX003 (ip), vehicle: saline
[19] = dose: 25.0 mg/kg/injection, schedule: Q01DX009 (ip), vehicle: saline
[20] = dose: 50.0 mg/kg/injection, schedule: Q01DX009 (ip), vehicle: saline
[21] = dose: 100.0 mg/kg/injection, schedule: Q04DX002 (ip), vehicle: saline
[22] = dose: 100.0 mg/kg/injection, schedule: Q01DX009 (ip), vehicle: saline

Measured: T/C

Nc1ncnc2c1ncn2C1CCCCC1
inactive: dose: 17.5 mg/kg/injection, schedule: Q01DX Z (ip), vehicle: carboxymethylcellulose (CMC) 89 % of control | dose: 34.0 mg/kg/injection, schedule: Q01DX Z (ip), vehicle: carboxymethylcellulose (CMC) 98 % of control | dose: 34.0 mg/kg/injection, schedule: Q01DX Z (oral), vehicle: carboxymethylcellulose (CMC) 97 % of control | dose: 68.0 mg/kg/injection, schedule: Q01DX Z (ip), vehicle: carboxymethylcellulose (CMC) 102 % of control | dose: 68.0 mg/kg/injection, schedule: Q01DX Z (oral), vehicle: carboxymethylcellulose (CMC) 100 % of control | dose: 136.0 mg/kg/injection, schedule: Q01DX Z (oral), vehicle: carboxymethylcellulose (CMC) 102 % of control

CC(C)(N)CNCC(C)(C)N
inactive: [1] 97 % of control | [2] 111 % of control

C=CCOc1c(C)cc(C)cc1/C=C/C
inactive: [3] 94 % of control | [4] 97 % of control | [5] 96 % of control

S=P(c1ccccc1)(c1ccccc1)P(=S)(c1ccccc1)c1ccccc1
inactive: [6] 100 % of control | [7] 92 % of control | [8] 92 % of control

COc1cc(C=Nc2ccc(Cl)cc2)ccc1O
inactive: [9] 97 % of control | [3] 120 % of control | [10] 94 % of control | [4] 96 % of control | [11] 101 % of control | [5] 103 % of control

Cc1cc(C)c2ccc(SC#N)c-2c(C)c1
inactive: [12] 106 % of control | [13] 95 % of control | [14] 101 % of control

[Cl][Pd][Cl].[NH-]C(c1ccccc1)C([NH-])c1ccccc1 (configuration not stated)
inactive: [6] 93 % of control and 97 % of control | [7] 90 % of control and 118 % of control | [8] 88 % of control and 97 % of control

Cc1ccc(N2C(=O)ON(c3ccccc3)C2c2ccccc2)cc1 (configuration not stated)
inactive: [15] 100 % of control | [1] 102 % of control | [2] 106 % of control | [16] 108 % of control

Cn1c(=O)c2[nH]c(C3CC4C=CC3C4)nc2n(C)c1=O (configuration not stated)
inactive: [15] 93 % of control | [1] 104 % of control | [2] 98 % of control

O=C(O)COc1c(Cl)cc(Cl)c2cccnc12
inactive: [12] 93 % of control | [13] 101 % of control

Cc1cc(=O)[nH]c2c(C)cc(-c3cc(C)c4[nH]c(=O)cc(C)c4c3)cc12
inactive: [9] 101 % of control | [17] 98 % of control | [10] 97 % of control | [18] 91 % of control | [11] 92 % of control | dose: 400.0 mg/kg/injection, schedule: Q04DX003 (ip), vehicle: saline 98 % of control

CC(C)N(C(=O)CSc1c(Cl)c(Cl)c(Cl)c(Cl)c1Cl)C(C)C
inactive: dose: 100.0 mg/kg/injection, schedule: Q04DX002 (ip), vehicle: other 107 % of control and 113 % of control | dose: 100.0 mg/kg/injection, schedule: Q04DX003 (ip), vehicle: other 89 % of control and 91 % of control | dose: 200.0 mg/kg/injection, schedule: Q04DX002 (ip), vehicle: other 95 % of control and 106 % of control | dose: 200.0 mg/kg/injection, schedule: Q04DX003 (ip), vehicle: other 96 % of control and 91 % of control | dose: 400.0 mg/kg/injection, schedule: Q04DX003 (ip), vehicle: other 94 % of control

C=C(C)C(=O)Oc1ccccc1-c1ccccc1
inactive: [6] 100 % of control | [7] 96 % of control | [8] 92 % of control

Clc1cccc(NC(c2ccccc2)=[N+]2CCCCC2)c1
inactive: [6] 95 % of control | [7] 106 % of control | [8] 113 % of control

Cc1ccccc1OCC(Cl)CN(C)C (configuration not stated)
inactive: [1] 100 % of control | [2] 102 % of control

Cc1ccc(C(=O)CCCCCC(=O)c2ccc(C)cc2O)c(O)c1
inactive: dose: 100.0 mg/kg/injection, schedule: Q01DX001 (ip), vehicle: Klucel (hydroxypropylcellulose) (HPC) 98 % of control | dose: 200.0 mg/kg/injection, schedule: Q01DX001 (ip), vehicle: Klucel (hydroxypropylcellulose) (HPC) 98 % of control | dose: 400.0 mg/kg/injection, schedule: Q01DX001 (ip), vehicle: Klucel (hydroxypropylcellulose) (HPC) 95 % of control

COc1nc(N)nc2c1nnn2C1OC(CO)C(O)C1O (configuration not stated)
inactive: dose: 44.0 mg/kg/injection, schedule: Q01DX001 (ip), vehicle: Klucel (hydroxypropylcellulose) (HPC) 108 % of control | dose: 66.0 mg/kg/injection, schedule: Q01DX001 (ip), vehicle: Klucel (hydroxypropylcellulose) (HPC) 103 % of control | dose: 150.0 mg/kg/injection, schedule: Q01DX001 (ip), vehicle: Klucel (hydroxypropylcellulose) (HPC) 122 % of control

Oc1ccccc1C1OCCO1
inactive: [1] 107 % of control | [2] 95 % of control | [16] 95 % of control

CC(C)(C)c1ccc(O)c(C(C)(C)C)c1
inactive: dose: 50.0 mg/kg/injection, schedule: Q01DX009 (ip), vehicle: saline with Tween-80 100 % of control | [9] 96 % of control | [3] 91 % of control | [10] 97 % of control | [4] 95 % of control

Cc1cc(Cl)c2c(Cl)ccc(Cl)c2n1
inactive: [1] 98 % of control | [2] 96 % of control | [16] 98 % of control

C#CCOCCCC(=C)C
inactive: [19] 109 % of control | [20] 93 % of control

OCC1OC([Se][Se]C2OC(CO)C(O)C(O)C2O)C(O)C(O)C1O (configuration not stated)
inactive: dose: 6.25 mg/kg/injection, schedule: Q01DX009 (ip), vehicle: saline 99 % of control | dose: 12.5 mg/kg/injection, schedule: Q01DX009 (ip), vehicle: saline 100 % of control | [19] 100 % of control | [21] 105 % of control

C[Si](C)(CCl)O[Si](C)(C)CCl
inactive: dose: 50.0 mg/kg/injection, schedule: Q01DX001 (ip), vehicle: carboxymethylcellulose (CMC) 113 % of control | [12] 97 % of control | [13] 106 % of control | [14] 97 % of control

CC(C)(C)SCCC(=O)NC1CCCCC1
inactive: [20] 90 % of control | [22] 95 % of control | [17] 106 % of control | dose: 200.0 mg/kg/injection, schedule: Q01DX009 (ip), vehicle: saline 93 % of control | [18] 101 % of control

Cn1c2c(c(=O)n(C)c1=O)C(C=O)C(=O)N2 (configuration not stated)
inactive: [21] 101 % of control | dose: 200.0 mg/kg/injection, schedule: Q04DX002 (ip), vehicle: saline 87 % of control | dose: 400.0 mg/kg/injection, schedule: Q04DX002 (ip), vehicle: saline 90 % of control

NC(=Nc1ccc(N)cc1)c1ccc(C(N)=Nc2ccc(N)cc2)cc1
inactive: dose: 2.5 mg/kg/injection, schedule: Q01DX015 (ip), vehicle: water 98 % of control | dose: 5.0 mg/kg/injection, schedule: Q01DX015 (ip), vehicle: water 100 % of control | dose: 10.0 mg/kg/injection, schedule: Q01DX015 (ip), vehicle: water 114 % of control | dose: 20.0 mg/kg/injection, schedule: Q01DX015 (ip), vehicle: water 100 % of control | dose: 36.7 mg/kg/injection, schedule: Q01DX015 (ip), vehicle: water 109 % of control | dose: 73.5 mg/kg/injection, schedule: Q01DX015 (ip), vehicle: water 105 % of control

O=C(Nc1cccc(C(F)(F)F)c1)Nc1ncccn1
inactive: dose: 50.0 mg/kg/injection, schedule: Q01DX009 (ip), vehicle: Klucel (hydroxypropylcellulose) (HPC) 90 % of control | dose: 100.0 mg/kg/injection, schedule: Q01DX009 (ip), vehicle: Klucel (hydroxypropylcellulose) (HPC) 94 % of control and 86 % of control | dose: 400.0 mg/kg/injection, schedule: Q01DX009 (ip), vehicle: Klucel (hydroxypropylcellulose) (HPC) 89 % of control

O=C(OCCN1CCCC1)C(c1ccccc1)C1(O)CCCC1 (configuration not stated)
inactive: [19] 103 % of control | dose: 25.0 mg/kg/injection, schedule: Q04DX003 (ip), vehicle: saline 104 % of control | [20] 102 % of control | dose: 50.0 mg/kg/injection, schedule: Q04DX003 (ip), vehicle: saline 101 % of control | [22] 117 % of control | [17] 96 % of control and 97 % of control

C/C(=C\COc1ccccc1)CCC1OC1(C)C (configuration not stated)
inactive: dose: 100.0 mg/kg/injection, schedule: Q04DX002 (ip), vehicle: saline with Tween-80 100 % of control | dose: 200.0 mg/kg/injection, schedule: Q04DX002 (ip), vehicle: saline with Tween-80 93 % of control | dose: 400.0 mg/kg/injection, schedule: Q04DX002 (ip), vehicle: saline with Tween-80 104 % of control
